In the NIST ThermoML archive (doi:10.1021/je3003404):

Test: mn = molality of the nth substance listed, in mol/kg
Details: 101 kPa, Liquid; for viscosity: Capillary tube (Ostwald / Ubbelohde) method; for electrical conductivity: Dip type conductivity cell; for mass density: Pycnometric method; for speed of sound: Sing-around technique in a fixed-path interferometer

CCCCCCCCCCCCCCCC[N+](C)(C)CC.[Br-] [ethylhexadecyldimethylammonium bromide] + O
Details | electrical conductivity [S/m] | mass density [kg/m3] | speed of sound [m/s] | viscosity [mPa·s]
298.15 K, m1 = 0.0002 | 0.0027 | 996.43 | 1498.5 | 0.8803
298.15 K, m1 = 0.0005 | 0.00707 | 996.47 | 1499.3 | 0.8841
298.15 K, m1 = 0.0008 | 0.0105 | 996.51 | 1500 | 0.887
298.15 K, m1 = 0.0012 | 0.0119 | 996.54 | 1500.3 | 0.8904
298.15 K, m1 = 0.0016 | 0.0127 | 996.56 | 1500.1 | 0.8929
298.15 K, m1 = 0.002 | 0.0138 | 996.58 | 1499.9 | 0.8952
298.15 K, m1 = 0.0025 | 0.0152 | 996.6 | 1499.9 | 0.8979
298.15 K, m1 = 0.003 | 0.0161 | 996.62 | 1499.7 | 0.9007
303.15 K, m1 = 0.0002 | 0.00301 | 994.49 | 1510.3 | 0.7889
303.15 K, m1 = 0.0005 | 0.00808 | 994.52 | 1511 | 0.792
303.15 K, m1 = 0.0008 | 0.0127 | 994.56 | 1511.8 | 0.7945
303.15 K, m1 = 0.0012 | 0.0144 | 994.59 | 1512.3 | 0.7978
303.15 K, m1 = 0.0016 | 0.0153 | 994.61 | 1512.2 | 0.8001
303.15 K, m1 = 0.002 | 0.0167 | 994.62 | 1512 | 0.8021
303.15 K, m1 = 0.0025 | 0.0178 | 994.64 | 1511.8 | 0.8047
303.15 K, m1 = 0.003 | 0.0194 | 994.66 | 1511.6 | 0.807
308.15 K, m1 = 0.0002 | 0.00338 | 992.55 | 1518.6 | 0.7097
308.15 K, m1 = 0.0005 | 0.00879 | 992.58 | 1519.2 | 0.7125
308.15 K, m1 = 0.0008 | 0.014 | 992.61 | 1519.9 | 0.7157
308.15 K, m1 = 0.0012 | 0.0161 | 992.63 | 1520.4 | 0.719
308.15 K, m1 = 0.0016 | 0.017 | 992.65 | 1520.2 | 0.7209
308.15 K, m1 = 0.002 | 0.0185 | 992.66 | 1520 | 0.7228
308.15 K, m1 = 0.0025 | 0.0195 | 992.67 | 1520 | 0.725
308.15 K, m1 = 0.003 | 0.0217 | 992.69 | 1519.5 | 0.7271
313.15 K, m1 = 0.0002 | 0.00364 | 990.61 | 1528.8 | 0.641
313.15 K, m1 = 0.0005 | 0.00952 | 990.63 | 1529.9 | 0.6432
313.15 K, m1 = 0.0008 | 0.0153 | 990.67 | 1530.4 | 0.6469
313.15 K, m1 = 0.0012 | 0.0183 | 990.68 | 1531.2 | 0.6502
313.15 K, m1 = 0.0016 | 0.0187 | 990.69 | 1531.1 | 0.652
313.15 K, m1 = 0.002 | 0.0209 | 990.7 | 1530.9 | 0.6539
313.15 K, m1 = 0.0025 | 0.0224 | 990.72 | 1530.7 | 0.6558
313.15 K, m1 = 0.003 | 0.0243 | 990.73 | 1530.5 | 0.6576
318.15 K, m1 = 0.0002 | 0.00396 | 988.67 | 1537.1 | 0.582
318.15 K, m1 = 0.0005 | 0.0107 | 988.68 | 1538.2 | 0.5832
318.15 K, m1 = 0.0008 | 0.0171 | 988.7 | 1538.5 | 0.587
318.15 K, m1 = 0.0012 | 0.021 | 988.73 | 1539.4 | 0.5903
318.15 K, m1 = 0.0016 | 0.023 | 988.74 | 1539.2 | 0.5922
318.15 K, m1 = 0.002 | 0.025 | 988.75 | 1539 | 0.5935
318.15 K, m1 = 0.0025 | 0.0265 | 988.76 | 1538.8 | 0.5954
318.15 K, m1 = 0.003 | 0.028 | 988.78 | 1538.6 | 0.5971
323.15 K, m1 = 0.0002 | – | 986.71 | 1541.7 | 0.5274
323.15 K, m1 = 0.0005 | – | 986.72 | 1542.8 | 0.5298
323.15 K, m1 = 0.0008 | – | 986.74 | 1543.5 | 0.5334
323.15 K, m1 = 0.0012 | – | 986.76 | 1544.5 | 0.5357
323.15 K, m1 = 0.0016 | – | 986.78 | 1544.3 | 0.5384
323.15 K, m1 = 0.002 | – | 986.79 | 1544.1 | 0.5398
323.15 K, m1 = 0.0025 | – | 986.8 | 1544 | 0.5413
323.15 K, m1 = 0.003 | – | 986.81 | 1543.8 | 0.5426
